Reference: patent US20220185818A1, “PYRROLOHETEROCYCLIC DERIVATIVE, PREPARATION METHOD THEREFOR, AND APPLICATION THEREOF IN MEDICINE” (Jiangsu Hengrui Medicine Co., Ltd., priority 2019, published 2022)
pIC50: −log10 of the molar value.

What was measured:
ERK2 = molecular target: T1, ERK2 (Homo sapiens, UniProt P28482); assay: ERK2 enzyme activity test (ADP-Glo Kinase Assay); assay type: biochemical; details: read-out: IC50 value of the inhibition on ERK2 enzyme activity
T1 construct: purchased R&D 1879-KS-010
Procedure: (§1) The purpose of this experiment is to detect the inhibitory ability of the compounds on the ERK2 enzyme activity, and evaluate the in vitro activity of the compounds based on the IC50. The ADP-Glo™ Kinase Assay Kit is used in this experiment. Under the action of the enzyme, the substrate is phosphorylated and ADP is produced at the same time. The ADP-Glo reagent is added to remove the unreacted ATP in the reaction system, and the ADP produced by the reaction is detected by the kinase detection reagent. In the presence of the compound, the inhibition rate of the compound is calculated by measuring the signal value.
(§2) ATP was diluted to 500 μM with the buffer. The compound was dissolved in DMSO to prepare a stock solution with an initial concentration of 20 mM, and then Bravo (SGC120TH34702, Agilent Technologies) was used to dilute the stock solution to desired concentrations. Finally, a 3 μL of a mixed solution of enzyme and substrate, and 1 μL of different concentrations of the compound (the initial concentration is 50 μM, 4-fold dilution) were added to each well of the 384-well plate, and the plate was incubated at 30° C. for 10 minutes, and finally 1 μL of 500 μM ATP solution was added to each well, and the plate was incubated at 30° C. for 2 hours. Then 5 μL of ADP-Glo was added, and the plate was incubated at 30° C. for 40 minutes. Then 10 μL of kinase detection buffer was added, and the plate was incubated at 30° C. for 40 minutes. The 384-well plate was taken out and placed in a microplate reader (BMG labtech, PHERAstar FS), and the chemiluminescence was measured by the microplate reader.
(§3) Microsoft Excel, Graphpad Prism 5 was used to process and analyze the data.

[1] = Pharmacokinetics assay in mice; assay type: in vivo; details: female, mouse, po, C57 mice, intragastrical administration, 2 mg/kg, plasma; for Vd/F: read-out: Apparent distribution volume Vz/F; for AUC: read-out: Area under curve AUC; for CL/F: read-out: Clearance CLz/F; for half-life: read-out: Half-life T1/2 (converted); for Cmax: read-out: Plasma concentration Cmax; for MRT: read-out: Residence time MRT
Procedure: Mice were used as test animals. […] The pharmacokinetic behavior of the compounds of the present disclosure was studied in mice, and the pharmacokinetic characteristics were evaluated.
2.2 Test Animals Thirty-six C57 mice (female, equally divided into 4 groups) were purchased from Shanghai Jiesijie Laboratory Animal Co., LTD.
A certain amount of the test compound was weighed and dissolved by the addition of 5% of DMSO and 5% of tween 80. Then 90% of normal saline were added to prepare a 0.1 mg/mL colorless, clear and transparent solution.
After an overnight fast, C57 mice were intragastrically administered the test compound at a dosage of 2 mg/kg and a volume of 0.2 ml/10 g.
The mice were intragastrically administered the test compounds. 0.1 ml of blood was taken before the administration and at 0.25, 0.5, 1.0, 2.0, 4.0, 6.0, 8.0, 11.0 and 24.0 hours after the administration. The samples were stored in heparinized tubes, and centrifuged for 10 minutes at 3500 rpm to separate the blood plasma. The plasma samples were stored at −20° C.
The content of the test compound in the plasma of mice after intragastrical administration of the test compound at different concentrations was determined: 25 μL of […] plasma at each time point after the administration was taken, followed by the addition of 50 μL of the internal standard camptothecin solution (National Institutes for Food and Drug Control of China) and 200 μL of acetonitrile. The resulting solution was vortex-mixed for 5 minutes, and centrifuged for 10 minutes (4000 rpm). 4 μL of the supernatant was taken from the plasma samples for LC/MS/MS analysis.

ERK1 = molecular target: T2, ERK1 (Homo sapiens, UniProt P27361); assay: ERK1 enzyme activity test (ADP-Glo Kinase Assay); assay type: biochemical; details: read-out: IC50 value of the inhibition on ERK1 enzyme activity
T2 construct: purchased R&D 1879-KS-010
Procedure: as §1, with “the ERK1” for “the ERK2”, “detected with” for “detected by”
as §2, with “diluted to 300 μM with” for “diluted to 500 μM with”, “Finally, a […] of” for “Finally, a 3 μL of”, “and 1 μL, of different” for “and 1 μL of different”, “μL of 300 μM ATP” for “μL of 500 μM ATP”, “μL of Kinase detection buffer” for “μL of kinase detection buffer”
as §3

Colo205 cells = assay: In vitro proliferation inhibition test on Colo205 tumor cells (CellTiter-Glo); assay type: cell-based; details: Homo sapiens, COLO 205, 72 h; 3 days of culture, CTG; read-out: IC50 value of the inhibition on in vitro Colo205 tumor cell proliferation
Procedure: The purpose of this experiment is to test the inhibitory activity of the compounds on the proliferation of Colo205 cells (CCL-222, ATCC) in vitro. The cells were treated in vitro with different concentrations of the compounds. After 3 days of culture, the cell proliferation was tested with CTG (CellTiter-Glo® Luminescent Cell Viability Assay, Promega, Catalog No. G7573) reagent, and the in vitro activity of the compounds was evaluated according to the IC50 value.
In the following, taking the in vitro proliferation inhibition test method of Colo205 cells as an example, the method in the present disclosure for testing the in vitro proliferation inhibitory activity of the compounds of the present disclosure is described. This method is also applicable to, but not limited to, the in vitro proliferation inhibitory activity test on other tumor cells.
Colo205 cells were digested, centrifuged and then resuspended. The single cell suspension was mixed well, and the density of viable cells was adjusted to 5.0×10^4 cells/ml with cell culture medium (RPMI1640+2% FBS), and 95 μl/well was added to a 96-well cell culture plate. Only 100 μl medium was added to the peripheral wells of the 96-well plate. The culture plate was incubated in an incubator for 24 hours (37° C., 5% CO2).
The compound was dissolved in DMSO and prepared into a stock solution with an initial concentration of 20 mM. The initial concentration of the small molecule compound was 2 mM, and then 4-fold diluted into 9 points, and the 10th point is DMSO. Another 96-well plate was taken and 90 μl of cell culture medium (RPMI1640+2% FBS) was added to each well, then 10 μl of different concentrations of the test sample was added to each well. The mixture was mixed well, and then 5 μL of different concentrations of the test sample was added to the cell culture plate with duplicate well for each sample. The culture plate was incubated in an incubator for 3 days (37° C., 5% CO2). The 96-well cell culture plate was taken out, 50 μL CTG solution was added to each well, and the plate was incubated for 10 minutes at room temperature. In a microplate reader (BMG labtech, PHERAstar FS), chemiluminescence was measured with the microplate reader.
as §3

T1 sequence (P28482 2-360 limits assumed): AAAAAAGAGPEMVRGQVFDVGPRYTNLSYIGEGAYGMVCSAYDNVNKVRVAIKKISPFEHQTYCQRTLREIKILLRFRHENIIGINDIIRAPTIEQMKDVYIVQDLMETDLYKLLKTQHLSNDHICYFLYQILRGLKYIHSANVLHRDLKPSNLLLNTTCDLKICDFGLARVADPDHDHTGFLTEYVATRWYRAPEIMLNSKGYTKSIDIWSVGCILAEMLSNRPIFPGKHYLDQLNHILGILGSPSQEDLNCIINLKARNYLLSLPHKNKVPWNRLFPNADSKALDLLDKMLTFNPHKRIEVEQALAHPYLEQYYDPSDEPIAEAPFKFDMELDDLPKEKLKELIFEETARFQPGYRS
T2 sequence (P27361 whole entry): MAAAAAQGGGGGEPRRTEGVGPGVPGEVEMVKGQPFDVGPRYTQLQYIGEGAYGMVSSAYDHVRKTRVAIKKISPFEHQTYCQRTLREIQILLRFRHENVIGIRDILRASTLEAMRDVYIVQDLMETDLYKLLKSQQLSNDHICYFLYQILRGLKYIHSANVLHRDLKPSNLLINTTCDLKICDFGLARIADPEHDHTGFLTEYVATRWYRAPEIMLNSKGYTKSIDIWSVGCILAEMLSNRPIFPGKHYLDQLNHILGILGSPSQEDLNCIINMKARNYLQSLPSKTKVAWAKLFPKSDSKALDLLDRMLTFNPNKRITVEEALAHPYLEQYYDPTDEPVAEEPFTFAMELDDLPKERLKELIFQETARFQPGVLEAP

Row | pIC50 (ERK2) | Vd/F [1] | AUC [1] | CL/F [1] | half-life [1] | Cmax [1] | MRT [1] | pIC50 (ERK1) | pIC50 (Colo205 cells) | SMILES
1 | 8.30 | 2.13 L/kg | 3700 ng·h/mL | 9 mL/min/kg | 2.74 h | 816 ng/mL | 3.3 h | 8.30 | 7.26 | Cc1cccc([C@@H](CO)N2Cc3cc(-c4ccnc(Nc5ccnn5C)n4)cn3C2=O)c1 [Example 15, (S)-2-(2-Hydroxy-1-(m-tolyl)ethyl)-6-(2-((1-methyl-1H-pyrazol-5-yl)amino)pyrimidin-4-yl)-1H-pyrrolo[1,2-c]imidazol-3(2H)-one]
2 | 7.74 | 1.41 L/kg | 7630 ng·h/mL | 4.37 mL/min/kg | 3.73 h | 1540 ng/mL | 4.95 h | 7.52 | 7.17 | Cn1nccc1Nc1nccc(-c2cc3n(c2)C(=O)N([C@H](CO)c2ccc(Cl)c(F)c2)C3)n1 [Example 20, (S)-2-(1-(3-Fluoro-4-chlorophenyl)-2-hydroxyethyl)-6-(2-((1-methyl-1H-pyrazol-5-yl)amino)pyrimidin-4-yl)-1H-pyrrolo[1,2-c]imidazol-3(2H)-one]
3 | 8.15 | 3.07 L/kg | 3440 ng·h/mL | 9.69 mL/min/kg | 3.66 h | 1020 ng/mL | 3.47 h | 8.30 | 7.21 | Cn1nccc1Nc1nccc(-c2cc3n(c2)C(=O)N([C@H](CO)c2cccc(Cl)c2)C3)n1 [Example 10, (S)-2-(1-(3-Chlorophenyl)-2-hydroxyethyl)-6-(2-((1-methyl-1H-pyrazol-5-yl)amino)pyrimidin-4-yl)-1,2-dihydro-3H-pyrrolo[1,2-c]imidazol-3-one]
